From ChEMBL document CHEMBL4014275, “Discovery of benzofuran-3(2H)-one derivatives as novel DRAK2 inhibitors that protect islet β-cells from apoptosis” (Eur J Med Chem, 2017)
pIC50, pKd: −log10 of the molar value.

Assays:
[1] = target: T1, Serine/threonine-protein kinase 17B (Homo sapiens, UniProt O94768); assay: Inhibition of DRAK2 (unknown origin)
T1 sequence (O94768 whole entry): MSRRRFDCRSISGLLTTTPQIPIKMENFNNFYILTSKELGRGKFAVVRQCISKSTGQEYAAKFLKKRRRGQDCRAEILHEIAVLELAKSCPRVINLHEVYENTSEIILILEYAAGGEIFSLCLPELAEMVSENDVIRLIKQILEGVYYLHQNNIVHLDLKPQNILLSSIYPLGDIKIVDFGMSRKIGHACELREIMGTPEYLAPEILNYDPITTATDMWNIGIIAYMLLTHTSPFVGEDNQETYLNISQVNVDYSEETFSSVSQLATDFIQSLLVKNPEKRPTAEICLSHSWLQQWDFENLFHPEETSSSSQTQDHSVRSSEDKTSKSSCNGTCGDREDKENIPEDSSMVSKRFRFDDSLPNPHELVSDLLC

[2] = target: T2, Serine/threonine-protein kinase 17A (Homo sapiens, UniProt Q9UEE5); assay: Binding affinity to DRAK1 (unknown origin)
T2 sequence (Q9UEE5 whole entry): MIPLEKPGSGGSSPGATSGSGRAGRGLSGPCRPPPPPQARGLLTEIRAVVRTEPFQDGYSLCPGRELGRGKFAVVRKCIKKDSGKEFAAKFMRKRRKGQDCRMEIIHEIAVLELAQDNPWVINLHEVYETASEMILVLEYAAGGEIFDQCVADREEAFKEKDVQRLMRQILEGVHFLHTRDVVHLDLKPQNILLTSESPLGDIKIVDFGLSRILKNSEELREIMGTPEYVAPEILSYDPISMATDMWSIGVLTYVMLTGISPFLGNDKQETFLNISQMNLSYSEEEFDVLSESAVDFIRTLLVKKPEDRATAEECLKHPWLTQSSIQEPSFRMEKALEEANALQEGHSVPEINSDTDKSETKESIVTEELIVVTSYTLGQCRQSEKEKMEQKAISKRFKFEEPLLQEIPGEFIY

[3] = target: Death-associated protein kinase 1 (Homo sapiens, UniProt P53355); assay: Binding affinity to DAPK1 (unknown origin)
[4] = target: T1, Serine/threonine-protein kinase 17B; assay: Inhibition of recombinant GST-tagged DRAK2 (unknown origin) autophosphorylation after 2 hrs by ADP-glo assay
[5] = target: T2, Serine/threonine-protein kinase 17A; assay: Inhibition of human DRAK1
[6] = target: Death-associated protein kinase 2 (Homo sapiens, UniProt Q9UIK4); assay: Inhibition of human DAPK2
[7] = target: Death-associated protein kinase 3 (Homo sapiens, UniProt O43293); assay: Inhibition of human DAPK3
[8] = target: Tyrosine-protein kinase Blk (Homo sapiens, UniProt P51451); assay: Inhibition of human BLK
Aurora kinase A = target: T3, Aurora kinase A (Homo sapiens, UniProt O14965); assay: Inhibition of human AURORA-A
T3 sequence (O14965 whole entry): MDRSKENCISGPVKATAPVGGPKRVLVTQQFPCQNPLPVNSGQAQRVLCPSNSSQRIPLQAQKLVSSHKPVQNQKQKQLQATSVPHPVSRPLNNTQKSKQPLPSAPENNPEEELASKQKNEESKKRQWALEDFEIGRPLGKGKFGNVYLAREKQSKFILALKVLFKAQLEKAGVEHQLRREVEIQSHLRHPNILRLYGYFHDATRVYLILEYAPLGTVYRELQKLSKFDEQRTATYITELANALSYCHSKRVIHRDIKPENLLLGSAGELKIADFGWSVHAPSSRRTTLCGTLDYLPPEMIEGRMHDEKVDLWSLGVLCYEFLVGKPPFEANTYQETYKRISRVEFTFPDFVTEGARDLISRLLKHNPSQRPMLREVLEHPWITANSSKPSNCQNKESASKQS

[9] = target: Tyrosine-protein kinase BTK (Homo sapiens, UniProt Q06187); assay: Inhibition of human BTK
[10] = target: T4, Inhibitor of nuclear factor kappa-B kinase subunit beta (Homo sapiens, UniProt O14920); assay: Inhibition of human IKKB
T4 sequence (O14920 whole entry): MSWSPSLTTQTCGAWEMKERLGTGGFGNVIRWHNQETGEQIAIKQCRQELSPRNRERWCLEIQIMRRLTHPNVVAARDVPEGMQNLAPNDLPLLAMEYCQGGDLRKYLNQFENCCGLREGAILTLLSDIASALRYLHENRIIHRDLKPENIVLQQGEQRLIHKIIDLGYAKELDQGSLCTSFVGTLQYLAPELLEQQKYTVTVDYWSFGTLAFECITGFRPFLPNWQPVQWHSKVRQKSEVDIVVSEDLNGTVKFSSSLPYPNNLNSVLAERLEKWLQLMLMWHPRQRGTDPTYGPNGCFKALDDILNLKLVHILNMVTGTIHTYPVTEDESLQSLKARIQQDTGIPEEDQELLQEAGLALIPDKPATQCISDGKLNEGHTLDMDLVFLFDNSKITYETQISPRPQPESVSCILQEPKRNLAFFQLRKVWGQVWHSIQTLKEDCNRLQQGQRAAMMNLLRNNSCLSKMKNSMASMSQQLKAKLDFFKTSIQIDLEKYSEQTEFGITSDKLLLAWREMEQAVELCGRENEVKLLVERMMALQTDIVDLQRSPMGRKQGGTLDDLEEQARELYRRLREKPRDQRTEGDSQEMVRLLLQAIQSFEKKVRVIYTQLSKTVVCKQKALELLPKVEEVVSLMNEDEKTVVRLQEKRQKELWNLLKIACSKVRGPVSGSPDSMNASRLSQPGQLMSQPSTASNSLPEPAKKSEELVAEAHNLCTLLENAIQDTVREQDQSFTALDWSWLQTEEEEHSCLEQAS

[11] = target: Glycogen synthase kinase-3 beta (Homo sapiens, UniProt P49841); assay: Inhibition of human GSK3beta
Chain of Glycogen synthase kinase-3 beta (P49841 whole entry): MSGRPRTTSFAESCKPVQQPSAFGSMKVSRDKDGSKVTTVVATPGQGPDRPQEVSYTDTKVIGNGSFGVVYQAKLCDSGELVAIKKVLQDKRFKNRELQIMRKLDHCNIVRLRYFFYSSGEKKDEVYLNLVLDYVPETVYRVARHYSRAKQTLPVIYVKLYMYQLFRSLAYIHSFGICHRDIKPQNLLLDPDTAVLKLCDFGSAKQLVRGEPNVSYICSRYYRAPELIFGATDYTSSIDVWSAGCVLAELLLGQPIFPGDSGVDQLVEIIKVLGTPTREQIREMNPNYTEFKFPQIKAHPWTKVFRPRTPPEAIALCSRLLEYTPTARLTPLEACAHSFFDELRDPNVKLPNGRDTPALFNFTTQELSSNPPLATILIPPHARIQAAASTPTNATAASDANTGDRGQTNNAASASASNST

Chain of Death-associated protein kinase 3 (O43293 whole entry): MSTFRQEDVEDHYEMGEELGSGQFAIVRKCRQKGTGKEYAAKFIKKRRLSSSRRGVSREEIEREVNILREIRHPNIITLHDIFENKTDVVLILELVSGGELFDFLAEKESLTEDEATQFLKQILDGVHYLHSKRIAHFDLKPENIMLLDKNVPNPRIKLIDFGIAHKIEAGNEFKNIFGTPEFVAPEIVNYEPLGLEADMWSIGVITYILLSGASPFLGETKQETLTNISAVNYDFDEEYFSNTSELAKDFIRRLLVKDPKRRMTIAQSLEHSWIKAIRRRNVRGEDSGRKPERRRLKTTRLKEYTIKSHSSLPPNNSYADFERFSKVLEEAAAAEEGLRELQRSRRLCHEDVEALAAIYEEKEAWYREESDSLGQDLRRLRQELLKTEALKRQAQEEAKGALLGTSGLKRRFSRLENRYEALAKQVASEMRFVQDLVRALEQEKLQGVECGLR
Chain of Death-associated protein kinase 1 (P53355 whole entry): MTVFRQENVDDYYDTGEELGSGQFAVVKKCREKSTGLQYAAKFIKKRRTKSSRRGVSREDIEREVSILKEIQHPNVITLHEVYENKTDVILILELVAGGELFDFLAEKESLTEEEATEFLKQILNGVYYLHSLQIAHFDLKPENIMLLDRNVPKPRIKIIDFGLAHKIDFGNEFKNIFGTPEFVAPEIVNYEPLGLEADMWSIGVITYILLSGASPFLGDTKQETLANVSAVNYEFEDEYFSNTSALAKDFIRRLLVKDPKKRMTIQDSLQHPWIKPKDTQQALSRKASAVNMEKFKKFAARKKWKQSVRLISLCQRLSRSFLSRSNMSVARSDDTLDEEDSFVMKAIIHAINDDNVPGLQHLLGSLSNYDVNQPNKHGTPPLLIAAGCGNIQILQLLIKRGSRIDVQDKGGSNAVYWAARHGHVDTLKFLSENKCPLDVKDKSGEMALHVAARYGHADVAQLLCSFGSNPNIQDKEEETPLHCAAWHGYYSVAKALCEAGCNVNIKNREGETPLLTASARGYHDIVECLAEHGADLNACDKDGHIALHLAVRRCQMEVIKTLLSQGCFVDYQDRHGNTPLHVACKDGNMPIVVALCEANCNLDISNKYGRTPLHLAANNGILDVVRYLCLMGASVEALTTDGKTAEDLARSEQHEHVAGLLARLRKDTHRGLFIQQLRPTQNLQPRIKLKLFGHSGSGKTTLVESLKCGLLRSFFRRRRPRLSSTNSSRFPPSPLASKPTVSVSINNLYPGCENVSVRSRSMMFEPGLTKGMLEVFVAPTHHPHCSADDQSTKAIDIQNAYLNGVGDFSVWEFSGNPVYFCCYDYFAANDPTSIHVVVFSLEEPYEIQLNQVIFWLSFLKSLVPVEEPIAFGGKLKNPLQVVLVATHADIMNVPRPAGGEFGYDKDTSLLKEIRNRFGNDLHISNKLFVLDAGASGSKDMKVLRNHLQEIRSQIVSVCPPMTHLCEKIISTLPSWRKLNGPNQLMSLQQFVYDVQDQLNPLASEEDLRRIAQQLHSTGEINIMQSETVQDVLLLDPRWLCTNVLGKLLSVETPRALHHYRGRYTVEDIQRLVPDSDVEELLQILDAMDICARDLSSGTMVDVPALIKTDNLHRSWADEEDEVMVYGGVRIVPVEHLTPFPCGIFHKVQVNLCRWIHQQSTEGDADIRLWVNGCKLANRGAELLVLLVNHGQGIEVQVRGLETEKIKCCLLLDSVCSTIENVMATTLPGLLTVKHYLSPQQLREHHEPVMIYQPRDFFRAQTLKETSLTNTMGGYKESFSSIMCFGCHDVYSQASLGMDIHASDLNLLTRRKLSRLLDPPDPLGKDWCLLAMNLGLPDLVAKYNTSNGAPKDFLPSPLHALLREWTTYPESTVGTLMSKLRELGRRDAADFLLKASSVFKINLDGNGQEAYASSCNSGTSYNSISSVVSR
Chain of Tyrosine-protein kinase BTK (Q06187 whole entry): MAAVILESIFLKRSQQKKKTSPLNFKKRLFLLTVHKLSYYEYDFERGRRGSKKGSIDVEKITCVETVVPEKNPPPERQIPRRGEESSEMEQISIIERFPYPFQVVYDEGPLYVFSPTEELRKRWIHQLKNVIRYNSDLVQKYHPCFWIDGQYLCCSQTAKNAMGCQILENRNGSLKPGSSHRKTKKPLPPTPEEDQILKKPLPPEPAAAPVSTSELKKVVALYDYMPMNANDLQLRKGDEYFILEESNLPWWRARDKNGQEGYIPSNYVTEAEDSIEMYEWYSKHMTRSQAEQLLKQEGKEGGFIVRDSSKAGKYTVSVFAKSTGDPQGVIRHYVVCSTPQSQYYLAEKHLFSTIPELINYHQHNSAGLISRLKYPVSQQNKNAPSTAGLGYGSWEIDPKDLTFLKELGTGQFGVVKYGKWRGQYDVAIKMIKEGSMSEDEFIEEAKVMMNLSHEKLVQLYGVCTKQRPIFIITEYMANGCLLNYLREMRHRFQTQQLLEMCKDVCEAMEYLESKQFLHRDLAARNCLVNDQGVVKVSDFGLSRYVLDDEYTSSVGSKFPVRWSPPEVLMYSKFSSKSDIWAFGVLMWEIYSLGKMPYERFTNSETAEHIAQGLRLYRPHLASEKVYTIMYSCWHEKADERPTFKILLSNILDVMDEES
Chain of Death-associated protein kinase 2 (Q9UIK4 whole entry): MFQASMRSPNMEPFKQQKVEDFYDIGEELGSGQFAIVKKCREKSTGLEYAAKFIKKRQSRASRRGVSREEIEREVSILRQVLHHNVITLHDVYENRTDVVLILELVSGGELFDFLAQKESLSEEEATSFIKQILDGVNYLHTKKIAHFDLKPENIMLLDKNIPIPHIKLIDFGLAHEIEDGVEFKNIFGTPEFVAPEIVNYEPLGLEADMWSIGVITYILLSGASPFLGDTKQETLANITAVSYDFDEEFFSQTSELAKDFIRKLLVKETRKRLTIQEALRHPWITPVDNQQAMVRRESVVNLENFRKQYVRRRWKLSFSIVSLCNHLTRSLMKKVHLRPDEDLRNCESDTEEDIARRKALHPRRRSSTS
Chain of Tyrosine-protein kinase Blk (P51451 whole entry): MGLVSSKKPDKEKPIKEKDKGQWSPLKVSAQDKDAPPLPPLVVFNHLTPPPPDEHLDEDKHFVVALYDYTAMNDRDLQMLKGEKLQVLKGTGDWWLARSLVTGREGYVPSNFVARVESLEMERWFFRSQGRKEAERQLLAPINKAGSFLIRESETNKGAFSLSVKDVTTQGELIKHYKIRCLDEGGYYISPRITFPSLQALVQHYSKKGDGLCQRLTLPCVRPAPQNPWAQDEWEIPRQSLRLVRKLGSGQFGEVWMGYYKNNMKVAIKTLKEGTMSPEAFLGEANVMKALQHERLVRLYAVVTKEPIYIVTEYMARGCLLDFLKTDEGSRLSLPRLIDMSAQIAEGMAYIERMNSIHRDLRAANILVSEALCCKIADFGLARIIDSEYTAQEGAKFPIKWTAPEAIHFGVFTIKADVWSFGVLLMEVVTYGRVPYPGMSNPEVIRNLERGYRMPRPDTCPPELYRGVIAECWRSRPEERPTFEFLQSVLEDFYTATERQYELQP

pIC50 [1] | pKd [2] | pIC50 [4] | pIC50 [5] | pIC50 [8] | pIC50 (Aurora kinase A) | pIC50 [9] | pIC50 [10] | pIC50 [11] | Structure (SMILES) | pKd [3] | pIC50 [6] | pIC50 [7]
7.54 | 7.00 |  |  |  |  |  |  |  | Nc1c(-c2n[nH]c(=S)o2)sc2ncc(-c3ccsc3)cc12 | 7.27 |  | 
 |  | 6.48 | 5.85 | 5.28 | 5.00 | 5.30 | 5.21 | 5.30 | CCOc1cc(/C=C2\Oc3ccc(OC)cc3C2=O)ccc1O |  | 4.64 | 4.72
